In BindingDB's records for doi:10.1021/jm00124a025 (Smith Kline & French Laboratories, 1989) one finds Ki data, which are given here for two compounds.

Molecules are shown by their SMILES.

In this assay the target is Vasopressin V2 receptor (Canis lupus familiaris). The assay can be described thus: Binding affinity of compound towards Vasopressin receptor by binding [3H]LVP to dog renal medullary preparation.

The Ki is the equilibrium dissociation constant of an inhibitor or competing ligand from its target. The low end stands for a stronger hold on the target, the high end for a looser hold on the target. Turning to `CCOc1ccc(C[C@@H]2NC(=O)CC3(CCC(C)CC3)SSC[C@H](C(=O)N[C@@H](CCCN=C(N)N)C(=O)N[C@@H](CCCN=C(N)N)C(N)=O)NC(=O)[C@H](CC(N)=O)NC(=O)[C@H](C(C)C)NC(=O)[C@H](Cc3ccccc3)NC2=O)cc1` (some centres not stated) [19-Benzyl-13-carbamoylmethyl-22-(4-ethoxy-benzyl)-16-isopropyl-3-methyl-12,15,18,21,24-pentaoxo-7,8-dithia-11,14,17,20,23-pentaaza-spiro[5.19]pentacosane-10-carboxylic acid [1-(1-carbamoyl-4-guanidino-butylcarbamoyl)-4-guanidino-butyl]-amide], the Ki amounted to 0.7 nM.
The result for `CCOc1ccc(C[C@@H]2NC(=O)CC3(CCCCC3)SSC[C@H](C(=O)N[C@@H](CCCN=C(N)N)C(=O)N[C@@H](CCCN=C(N)N)C(N)=O)NC(=O)[C@@H](CC(N)=O)NC(=O)[C@H](C(C)C)NC(=O)[C@@H](Cc3ccccc3)NC2=O)cc1` [19-Benzyl-13-carbamoylmethyl-22-(4-ethoxy-benzyl)-16-isopropyl-12,15,18,21,24-pentaoxo-7,8-dithia-11,14,17,20,23-pentaaza-spiro[5.19]pentacosane-10-carboxylic acid [1-(1-carbamoyl-4-guanidino-butylcarbamoyl)-4-guanidino-butyl]-amide] reads 0.5 nM.
